The record followed here is US11185531B2, “Arginine methyltransferase inhibitors and uses thereof” (Epizyme, Inc., priority 2013, dated 2021).

pIC50: −log10 of the molar value.

The target in test [1] is T1, human PRMT8 (Homo sapiens, UniProt Q9NR22).
T1 construct: Full-length human PRMT8 (NM_019854.4) isoform 1 transcript clone; GST (N, cleaved yes); made in house; host or cells: E. coli BL21(DE3) Gold
As to the kind of experiment: PRMT8 Biochemical Assay (3H-SAM Flashplate, peptide substrate). As to conditions: 30 min preincubation. From the text:
Peptide representative of human histone H4 residues 31-45 was synthesized with an N-terminal linker-affinity tag motif and a C-terminal amide cap by 21st Century Biochemicals. The peptide was purified by high-performance liquid chromatography (HPLC) to greater than 95% purity and confirmed by liquid chromatography mass spectrometry (LC-MS). The sequence was Biot-Ahx-[…]-amide (SEQ ID NO:8).
The resulting construct encodes an N-terminal GST tag and a thrombin cleavage sequence
GST-tagged PRMT8 was eluted with 50 mM Tris, 2 mM glutathione, pH 7.8. Pooled fractions were cleaved by thrombin (10 U) and dialysed in buffer A. GST was removed by reloading the cleaved protein sample onto glutathione sepharose column and PRMT8 was collected in the flow-through fractions. PRMT8 was purified further by ceramic hydroxyapatite chromatography. The column was washed with 50 mM phosphate buffer, 100 mM NaCl, 5% glycerol, 5 mM 3-mercaptoethanol, pH 7.8 and PRMT8 was eluted by 100 mM phosphate in the same buffer. Protein was concentrated and buffer was exchanged to 50 mM Tris, 300 mM NaCl, 10% glycerol, 5 mM β-mercaptoethanol, pH 7.8 by ultrafiltration. The purity of recovered protein was 89%.
General Procedure for PRMT8 Enzyme Assays on Peptide Substrates.
The assays were all performed in a buffer consisting of 20 mM Bicine (pH=7.6), 1 mM TCEP, 0.005% BSG, and 0.002% Tween 20, prepared on the day of use. Compounds in 100% DMSO (1 ul) were spotted into a polypropylene 384-well V-bottom plates (Greiner) using a Platemate Plus outfitted with a 384-channel head (Thermo Scientific). DMSO (1 ul) was added to Columns 11, 12, 23, 24, rows A-H for the maximum signal control and 1 ul of SAH, a known product and inhibitor of PRMT8, was added to columns 11, 12, 23, 24, rows I-P for the minimum signal control. A cocktail (40 ul) containing the PRMT8 enzyme was added by Multidrop Combi (Thermo-Fisher). The compounds were allowed to incubate with PRMT8 for 30 min at room temperature, then a cocktail (10 ul) containing ^3H-SAM and peptide was added to initiate the reaction (final volume=51 ul). The final concentrations of the components were as follows: PRMT8 was 1.5 nM, ^3H-SAM was 50 nM, non-radiolabeled SAM was 550 nM, peptide was 150 nM, SAH in the minimum signal control wells was 1 mM, and the DMSO concentration was 2%. The assays were stopped by the addition of non-radiolabeled SAM (10 ul) to a final concentration of 400 uM, which dilutes the ^3H-SAM to a level where its incorporation into the peptide substrate is no longer detectable. 50 ul of the reaction in the 384-well polypropylene plate was then transferred to a 384-well Flashplate and the biotinylated peptides were allowed to bind to the streptavidin surface for at least 1 hour before being washed once with 0.1% Tween20 in a Biotek ELx405 plate washer. The plates were then read in a PerkinElmer TopCount plate reader to measure the quantity of ^3H-labeled peptide bound to the Flashplate surface, measured as disintegrations per minute (dpm) or alternatively, referred to as counts per minute (cpm).
(§1) Where dpm=disintegrations per minute, cmpd=signal in assay well, and min and max are the respective minimum and maximum signal controls.
(§2) Where top and bottom are the normally allowed to float, but may be fixed at 100 or 0 respectively in a 3-parameter fit. The Hill Coefficient normally allowed to float but may also be fixed at 1 in a 3-parameter fit. Y is the % inhibition and X is the compound concentration.

Test [2] has as its target T2, human PRMT1 (Homo sapiens, UniProt Q99873).
T2 construct: GST-tagged PRMT1; made in house; host or cells: High Five insect cells (baculovirus)
The test can be described thus: PRMT1 Biochemical Assay (3H-SAM Flashplate, peptide substrate). Conditions: 30 min preincubation.
Source text: Peptide representative of human histone H4 residues 36-50 was synthesized with an N-terminal linker-affinity tag motif and a C-terminal amide cap by 21st Century Biochemicals. The peptide was purified by high-performance liquid chromatography (HPLC) to greater than 95% purity and confirmed by liquid chromatography mass spectrometry (LC-MS). The sequence was Biot-Ahx-[…]-amide (SEQ ID NO.: 1).
Full-length human PRMT1 isoform 1 (NM_001536.5) transcript clone was amplified from an HEK 293 cDNA library, incorporating flanking 5′ sequence encoding a FLAG tag ([…]) (SEQ ID NO:2) fused directly to Met 1 of PRMT1. The amplified gene was subcloned into pFastBacI (Life Technologies) modified to encode an N-terminal GST tag and a TEV cleavage sequence
GST-tagged PRMT1 was eluted with 50 mM Tris, 2 mM glutathione, pH 7.8, dialysed in buffer A and concentrated to 1 mg/mL. The purity of recovered protein was 73%. Reference: Wasilko, D. J. and S. E. Lee: “TIPS: titerless infected-cells preservation and scale-up” Bioprocess J., 5 (2006), pp. 29-32.
General Procedure for PRMT1 Enzyme Assays on Peptide Substrates.
The assays were all performed in a buffer consisting of 20 mM Bicine (pH=7.6), 1 mM TCEP, 0.005% BSG, and 0.002% Tween 20, prepared on the day of use. Compounds in 100% DMSO (1 ul) were spotted into a polypropylene 384-well V-bottom plates (Greiner) using a Platemate Plus outfitted with a 384-channel head (Thermo Scientific). DMSO (1 ul) was added to Columns 11, 12, 23, 24, rows A-H for the maximum signal control and 1 ul of SAH, a known product and inhibitor of PRMT1, was added to columns 11, 12, 23, 24, rows I-P for the minimum signal control. A cocktail (40 ul) containing the PRMT1 enzyme was added by Multidrop Combi (Thermo-Fisher). The compounds were allowed to incubate with PRMT1 for 30 min at room temperature, then a cocktail (10 ul) containing SAM and peptide was added to initiate the reaction (final volume=51 ul). The final concentrations of the components were as follows: PRMT1 was 0.5 nM, ^3H-SAM was 200 nM, non-radiolabeled SAM was 1.5 uM, peptide was 20 nM, SAH in the minimum signal control wells was 1 mM, and the DMSO concentration was 2%. The assays were stopped by the addition of non-radiolabeled SAM (10 ul) to a final concentration of 300 uM, which dilutes the ^3H-SAM to a level where its incorporation into the peptide substrate is no longer detectable. 50 ul of the reaction in the 384-well polypropylene plate was then transferred to a 384-well Flashplate and the biotinylated peptides were allowed to bind to the streptavidin surface for at least 1 hour before being washed once with 0.1% Tween20 in a Biotek ELx405 plate washer. The plates were then read in a PerkinElmer TopCount plate reader to measure the quantity of ^3H-labeled peptide bound to the Flashplate surface, measured as disintegrations per minute (dpm) or alternatively, referred to as counts per minute (cpm).
as §1, §2

T1 sequence (Q9NR22 whole entry, canonical isoform): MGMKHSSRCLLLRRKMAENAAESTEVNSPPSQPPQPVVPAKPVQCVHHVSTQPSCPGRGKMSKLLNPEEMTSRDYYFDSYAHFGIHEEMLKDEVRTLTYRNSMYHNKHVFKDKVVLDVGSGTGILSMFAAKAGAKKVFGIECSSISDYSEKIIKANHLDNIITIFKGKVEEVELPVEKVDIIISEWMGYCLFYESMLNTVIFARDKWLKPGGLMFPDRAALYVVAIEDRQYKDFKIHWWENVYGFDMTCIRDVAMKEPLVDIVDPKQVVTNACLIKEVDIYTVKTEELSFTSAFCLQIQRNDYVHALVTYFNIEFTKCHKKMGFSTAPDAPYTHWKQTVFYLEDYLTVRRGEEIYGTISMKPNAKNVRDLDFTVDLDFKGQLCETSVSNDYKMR
T2 sequence (Q99873 with tags, fused parts or gaps): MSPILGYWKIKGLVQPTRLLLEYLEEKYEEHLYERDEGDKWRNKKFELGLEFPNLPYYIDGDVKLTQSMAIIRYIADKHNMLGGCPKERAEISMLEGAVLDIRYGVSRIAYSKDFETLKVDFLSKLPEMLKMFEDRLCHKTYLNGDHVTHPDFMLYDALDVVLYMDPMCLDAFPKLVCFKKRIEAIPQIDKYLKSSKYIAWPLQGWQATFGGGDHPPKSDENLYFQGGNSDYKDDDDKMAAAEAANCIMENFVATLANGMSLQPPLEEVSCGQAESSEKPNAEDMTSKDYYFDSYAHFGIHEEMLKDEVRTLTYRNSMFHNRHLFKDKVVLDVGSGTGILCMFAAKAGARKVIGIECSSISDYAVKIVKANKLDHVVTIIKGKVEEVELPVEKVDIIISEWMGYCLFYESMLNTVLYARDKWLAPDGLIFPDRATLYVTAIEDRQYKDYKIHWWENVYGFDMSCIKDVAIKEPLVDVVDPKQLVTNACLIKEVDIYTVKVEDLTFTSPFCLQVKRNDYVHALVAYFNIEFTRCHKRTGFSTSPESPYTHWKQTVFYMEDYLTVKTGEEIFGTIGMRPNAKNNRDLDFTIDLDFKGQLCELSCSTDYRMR

`CNCCN(C)Cc1c[nH]nc1C#Cc1cccc(OC)c1` [Compound 1]: the pIC50 in test [1] was 6.00 to 7.00; in test [2], greater than 7.00.
The matching figures for `CNCCN(C)Cc1c[nH]nc1C#Cc1ccc(C(C)(C)C)cc1` [Compound 2]: 6.00 to 7.00 and greater than 7.00.
With `CNCCN(C)Cc1c[nH]nc1C#Cc1ccccc1` [Compound 3], the negative-log IC50 (pIC50) in test [1] is 6.00 to 7.00.
Turning to `CNCCN(C)Cc1c[nH]nc1C#Cc1ccc(F)cc1` [Compound 4], the pIC50 in test [1] was 6.00 to 7.00; in test [2], greater than 7.00.
Take `CNCCN(C)Cc1c[nH]nc1/C=C/c1ccc(-c2ccccc2)cc1` [Compound 5]: the negative logarithm of the IC50 (pIC50) is 6.00 to 7.00 in test [1] and greater than 7.00 in test [2].
Consider `CNCCN(C)Cc1c[nH]nc1/C=C/c1ccc(C(F)(F)F)cc1` [Compound 6], for which the negative-log IC50 (pIC50) in test [1] is 6.00 to 7.00; in test [2], greater than 7.00.
As for `CNCCN(C)Cc1c[nH]nc1/C=C/c1ccc(OC)cc1` [Compound 7], the results for the negative-log IC50 (pIC50) in test [1] and in test [2] were 6.00 to 7.00 and greater than 7.00, respectively.
`Cc1ccc(/C=C/c2n[nH]cc2CN(C)CCN)cc1` [Compound 8]: the results for the negative-log IC50 (pIC50) in test [1] and in test [2] were 6.00 to 7.00 and greater than 7.00, respectively.
The matching figures for `CN(CCN)Cc1c[nH]nc1C1=CCOCC1` [Compound 10]: 5.52 to 6.00 and 6.00 to 7.00.
As for `COc1cc(/C=C/c2n[nH]cc2CN(C)CCN)cc(OC)c1` [Compound 11], the pIC50 in test [1] was 6.00 to 7.00; in test [2], greater than 7.00.
The matching figures for `CN(CCN)Cc1c[nH]nc1/C=C/c1ccc(F)cc1F` [Compound 13]: 6.00 to 7.00 and greater than 7.00.
Turning to `CN(CCN)Cc1c[nH]nc1/C=C/c1cc(C(F)(F)F)cc(C(F)(F)F)c1` [Compound 14], the figures for the pIC50 in test [1] and in test [2] were 6.00 to 7.00 and greater than 7.00, respectively.
Turning to `CN(CCN)Cc1c[nH]nc1/C=C/c1cc(F)cc(F)c1` [Compound 15], the negative logarithm of the IC50 (pIC50) in test [1] is 6.00 to 7.00; in test [2], greater than 7.00.
With `CN(CCN)Cc1c[nH]nc1/C=C/c1cccc(C(F)(F)F)c1` [Compound 16], the pIC50 was 6.00 to 7.00 in test [1] and greater than 7.00 in test [2].
For `COc1cccc(/C=C/c2n[nH]cc2CN(C)CCN)c1` [Compound 17], the pIC50 in test [1] was 6.00 to 7.00; in test [2], greater than 7.00.
Regarding `CN(CCN)Cc1c[nH]nc1/C=C/c1ccc(C(F)(F)F)cc1` [Compound 18], the pIC50 in test [1] and in test [2] was greater than 7.00 in each case.
For `COC/C=C/c1n[nH]cc1CN(C)CCN` [Compound 19], the pIC50 was 5.52 to 6.00 in test [1] and 6.00 to 7.00 in test [2].
For `CN(CCN)Cc1c[nH]nc1/C=C/c1cccc(F)c1` [Compound 20], the results for the negative logarithm of the IC50 (pIC50) in test [1] and in test [2] were 6.00 to 7.00 and greater than 7.00, respectively.
The matching figures for `CC(C)c1n[nH]cc1CN(C)CCN` [Compound 21]: 5.00 to 5.52 and 5.52 to 6.00.
In the same order, the values of `CN(CCN)Cc1c[nH]nc1C1CCCCC1` [Compound 22] are 6.00 to 7.00 and greater than 7.00.
The matching figures for `CN(CCN)Cc1c[nH]nc1CCc1ccc(F)cc1` [Compound 23, N^1-((3-(4-fluorophenethyl)-1H-pyrazol-4-yl)methyl)-N^1-methylethane-1,2-diamine]: 6.00 to 7.00 and greater than 7.00.
Turning to `CN(CCN)Cc1c[nH]nc1/C=C/Cc1ccccc1` [Compound 24], the results for the pIC50 in test [1] and in test [2] were 6.00 to 7.00 and greater than 7.00, respectively.
Consider `CN(CCN)Cc1c[nH]nc1C1=CCCC1` [Compound 25], for which the results for the pIC50 in test [1] and in test [2] were 5.52 to 6.00 and 6.00 to 7.00, respectively.
`CN(CCN)Cc1c[nH]nc1C1CCC1` [Compound 26] showed a pIC50 in test [1] of 5.00 to 5.52.
Turning to `CC(C)Cc1n[nH]cc1CN(C)CCN` [Compound 28, N^1-((3-iso-butyl-1H-pyrazol-4-yl)methyl)-N^1-methylethane-1,2-diamine], the negative logarithm of the IC50 (pIC50) in test [1] is 5.52 to 6.00; in test [2], 6.00 to 7.00.
With `CCCc1n[nH]cc1CN(C)CCN` [Compound 29], the pIC50 was 5.52 to 6.00 in test [1] and 6.00 to 7.00 in test [2].
In test [1], `Cc1n[nH]cc1CN(C)CCN` [Compound 30] gave a pIC50 of 5.00 to 5.52.
The compound `CN(CCN)Cc1c[nH]nc1C1CCCC1` [Compound 31] had a negative-log IC50 (pIC50) in test [1] of less than 5.00.
Take `CNCCN(C)Cc1c[nH]nc1C1CCN(C(=O)Cc2ccccc2)CC1` [Compound 32]: the pIC50 in test [1] was 5.52 to 6.00; in test [2], 6.00 to 7.00.
As to `CN(CCN)Cc1n[nH]cc1C1CCCCC1` [Compound 33], the figures for the pIC50 in test [1] and in test [2] were 6.00 to 7.00 and greater than 7.00, respectively.
The matching figures for `CNCCN(C)Cc1c[nH]nc1C1CCN(C(=O)C(C)C)CC1` [Compound 34]: 6.00 to 7.00 and greater than 7.00.
For `CC1CCC(c2c[nH]nc2CN(C)CCN)CC1` (stereo not shown) [Compound 35], the pIC50 in test [1] was 6.00 to 7.00; in test [2], greater than 7.00.
Take `CN(CCN)Cc1n[nH]cc1C1CCC(C)(C)CC1` [Compound 36]: the pIC50 is 6.00 to 7.00 in test [1] and greater than 7.00 in test [2].
In test [1], `CNCCN(C)Cc1c[nH]nc1C1CCN(CC(C)C)CC1` [Compound 39, N^1-((3-(1-isobutylpiperidin-4-yl)-1H-pyrazol-4-yl)methyl)-N^1,N^2-dimethylethane-1,2-diamine] showed a pIC50 of 6.00 to 7.00.
`CN(CCN)Cc1n[nH]cc1C1CCC(N2CCOCC2)CC1` (stereo not shown) [Compound 44, N^1-methyl-N^1-((4-(4-morpholinocyclohexyl)-1H-pyrazol-3-yl)methyl)ethane-1,2-diamine]: the pIC50 in test [2] was 5.52 to 6.00.
